Measurements: ChEMBL document CHEMBL3046631, “Synthesis and Structure-Activity Relationships of Dinotefuran Derivatives: Modification in the Nitroguanidine Part” (2004)

Columns and labels:
Nephotettix cincticeps = assay: Insecticidal activity against 1 to 3 day-old adult Nephotettix cincticeps (green rice leafhopper) infested in compound-treated rice seedlings assessed as mortality measured after 3 days; type: functional
Laodelphax striatellus = assay: Insecticidal activity against 1 to 3 day-old adult Laodelphax striatella (small brown planthopper) infested compound-treated rice seedlings assessed as mortality measured after 3 days; type: functional

Row | Structure (SMILES) | LC70 (Nephotettix cincticeps) | LC70 (Laodelphax striatellus)
1 | COC(=O)N/C(=N\[N+](=O)[O-])NCC1CCOC1 (racemic) | 10 ppm | >1000 ppm
2 | O=[N+]([O-])/N=C(\NCc1ccccc1)NCC1CCOC1 (racemic) | >1000 ppm | >1000 ppm
3 | CN(C)/C(=C\[N+](=O)[O-])N(C)CC1CCOC1 (racemic) | 10 ppm | 1 ppm
4 | CCN(C(C)=O)/C(=N\[N+](=O)[O-])N(CC1CCOC1)C(C)=O (racemic) | 10 ppm | 10 ppm
5 | CC(=O)N1CCCN(CC2CCOC2)/C1=N\[N+](=O)[O-] (racemic) | 0.1 ppm | 10 ppm
6 | CN(C)/C(=N\[N+](=O)[O-])NCC1CCOC1 (racemic) | 0.1 ppm | 1 ppm
7 | CN(C(=O)c1ccccc1)/C(=N\[N+](=O)[O-])N(CC1CCOC1)C(=O)c1ccccc1 (racemic) | 0.1 ppm | 1 ppm
8 | O=[N+]([O-])/C=C1\NCCN1CC1CCOC1 (racemic) | 0.1 ppm | 10 ppm
9 | CCCN/C(=C\[N+](=O)[O-])NCC1CCOC1 (racemic) | 100 ppm | 100 ppm
10 | O=[N+]([O-])/N=C1\NCCCN1CC1CCOC1 (racemic) | 0.1 ppm | 1 ppm
11 | CCN(CC1CCOC1)/C(=N/[N+](=O)[O-])NC (racemic) | 10 ppm | 10 ppm
12 | CCN/C(=C\[N+](=O)[O-])NCC1CCOC1 (racemic) | 10 ppm | 10 ppm
13 | COC(=O)N(CC1CCOC1)/C(=N/[N+](=O)[O-])N(C)Cc1ccccc1 (racemic) | 0.1 ppm | 1 ppm
14 | CC(=O)N(C)/C(=N\[N+](=O)[O-])N(CC1CCOC1)C(C)=O (racemic) | 0.1 ppm | 0.1 ppm
15 | CN1CCCN(CC2CCOC2)/C1=N/[N+](=O)[O-] (racemic) | 10 ppm | 100 ppm
16 | CS/C(=C\[N+](=O)[O-])NCC1CCOC1 (racemic) | >1000 ppm | >1000 ppm
17 | CN(C)/C(=C\[N+](=O)[O-])NCC1CCOC1 (racemic) | 1 ppm | 0.1 ppm
18 | O=[N+]([O-])/C=C1\NCCCN1CC1CCOC1 (racemic) | 0.1 ppm | 1 ppm
19 | CCCN(CC1CCOC1)/C(=C/[N+](=O)[O-])NC (racemic) | 10 ppm | 10 ppm
20 | CN/C(=C\[N+](=O)[O-])NCC1CCOC1 (racemic) | 0.1 ppm | 0.1 ppm
21 | CN1CCCN(CC2CCOC2)/C1=C/[N+](=O)[O-] (racemic) | 10 ppm | 10 ppm

Row | Structure (SMILES) | LC70 (Nephotettix cincticeps) | LC70 (Laodelphax striatellus)
22 | CS/C(=N\[N+](=O)[O-])N(C)CC1CCOC1 (racemic) | >1000 ppm | >1000 ppm
23 | CN/C(=N\[N+](=O)[O-])N(C)CC1CCOC1 (racemic) | 1 ppm | 1 ppm
24 | CS/C(=C\[N+](=O)[O-])N(C)CC1CCOC1 (racemic) | >1000 ppm | >1000 ppm
25 | O=[N+]([O-])/N=C1\NCCN1CC1CCOC1 (racemic) | 1 ppm | 10 ppm
26 | CN(Cc1ccccc1)/C(=N\[N+](=O)[O-])N(Cc1ccccc1)CC1CCOC1 (racemic) | 10 ppm | 10 ppm
27 | N/C(=N\[N+](=O)[O-])NCC1CCOC1 (racemic) | 100 ppm | >1000 ppm
28 | CC(=O)N/C(=N\[N+](=O)[O-])NCC1CCOC1 (racemic) | >1000 ppm | >1000 ppm
29 | CN/C(=C\[N+](=O)[O-])N(C)CC1CCOC1 (racemic) | 1 ppm | 1 ppm
30 | CS/C(=N\[N+](=O)[O-])NCC1CCOC1 (centres undefined) | 10 ppm | 10 ppm
31 | O=C(N/C(=N\[N+](=O)[O-])NCC1CCOC1)c1ccccc1 (racemic) | >1000 ppm | >1000 ppm
32 | O=[N+]([O-])/C=C1\NCCCCN1CC1CCOC1 (racemic) | 1 ppm | 10 ppm
33 | CN(C)/C(=N\[N+](=O)[O-])N(C)CC1CCOC1 (racemic) | 10 ppm | 10 ppm
34 | CCN(CC1CCOC1)/C(=C/[N+](=O)[O-])NC (racemic) | 10 ppm | 1 ppm
35 | COC(=O)N(C)/C(=N\[N+](=O)[O-])N(CC1CCOC1)C(=O)OC (racemic) | 0.1 ppm | 1 ppm
36 | CCN(C)/C(=N\[N+](=O)[O-])NCC1CCOC1 (racemic) | 10 ppm | 10 ppm
37 | O=[N+]([O-])/N=C1\NCCCCN1CC1CCOC1 (racemic) | 10 ppm | 100 ppm
38 | COC(=O)N(CC1CCOC1)/C(=N/[N+](=O)[O-])N(C)C(C)=O (racemic) | 0.1 ppm | 1 ppm
39 | C#CCN/C(=C\[N+](=O)[O-])NCC1CCOC1 (racemic) | >1000 ppm | >1000 ppm
40 | CN/C(=N/CC1CCOC1)N[N+](=O)[O-] (centres undefined) [DINOTEFURAN] | 0.1 ppm | 0.1 ppm
41 | CCN/C(=N\[N+](=O)[O-])NCC1CCOC1 (racemic) | 10 ppm | 100 ppm
42 | O=C(c1ccccc1)N1CCCN(CC2CCOC2)/C1=N\[N+](=O)[O-] (racemic) | 0.1 ppm | 10 ppm
